The values that follow come from patent US8129349B2, “Treatment of disease by inducing cell apoptosis” (The Regents of the University of California, priority 2000, dated 2012).

pKi: −log10 of the molar value. Non-standard residues stand in square brackets, D forms with d. pT = C[C@@H](OP(=O)(O)O)[C@H](N)C(=O)O

As a reminder, the pKi is the negative decadic logarithm of the Ki, by convention in mol/L.

Assay [1] has as its system C/EBPβ+/+ stellate cells. The assay is described as follows: Annexin-V-PE assay of stellate cells treated with lactacystin. The class given is cell-based, mouse. Conditions: lactacystin 0-30 μM, 6 hours after treatment began. On the procedure:
(§1) FIG. 7 provides data showing that phosphorylation of rat C/EBPβ on Ser^105 prevents stellate cell apoptosis. Panel A provides results for mouse stellate cells transfected as described herein (See, FIG. 2), with mutant p90RSK or treated with lactacystin (10 μM) (closed bars), and co-transfected with CMV-rC/EBPβ-Asp^105 (1 μg each) (open bars) as indicated. Annexin-V-PE binding was determined as described for FIG. 2 (P<0.05 for rC/EBPβ-Asp^105). Panel B provides results of an annexin-V-PE assay for stellate cells from C/EBPβ^+/+ (closed circles) and rC/EBPβ-Asp^105 transgenic (open circles) mice treated with lactacystin (0-30 μM). The annexin-V-PE assay was performed 6 hours after treatment began (P<0.05 for rC/EBPβ-Asp^105 transgenic mice for 5-25 μM lactacystin). Panel C provides results for rC/EBPβ-HA constructs (0.3 μg) transfected into rat stellate cells. The expressed peptides were immunoprecipitated with anti-HA antibodies. Using a specific antibody, rCEBPβ-PSer^105 was detected only in cells that expressed wild-type rC/EBPβ. […] Reciprocal immunoprecipitations confirmed these associations. […] Enzyme activity was measured using a colorimetric substrate as described in the Examples. […]

The target of assay [2] is T1, caspase 8 (Homo sapiens, UniProt Q14790).
T1 construct: 21 amino acid linker (vector-derived) (N); purchased Alexis Biochemicals 201-041-C005
T1 sequence (Q14790 217-479): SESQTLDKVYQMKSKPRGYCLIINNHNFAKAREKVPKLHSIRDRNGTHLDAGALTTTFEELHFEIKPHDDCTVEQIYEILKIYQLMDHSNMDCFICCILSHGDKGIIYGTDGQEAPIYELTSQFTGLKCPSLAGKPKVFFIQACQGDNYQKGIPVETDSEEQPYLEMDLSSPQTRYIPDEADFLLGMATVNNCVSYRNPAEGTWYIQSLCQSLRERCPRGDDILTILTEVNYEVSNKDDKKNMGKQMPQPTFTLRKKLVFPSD
Description: In vitro self-activation of recombinant caspase 8. It is filed as biochemical. Conditions: peptides 200 μM, 2 h, procaspase 8 (0.2 μg), colorimetric substrate. On the procedure:
(§2) FIG. 5 provides results showing the direct association of C/EBPβ-Glu^217 with procaspases 1 and 8. […] Enzyme activity was measured in the absence (control) or presence of C/EBPβ peptides (200 μM) for 2 h, using a procaspases 1 (1U) (not shown) and 8 (0.2 μg) activity assay. Values are presented as the mean±one half the range of duplicates. Panel C provides results for cells cultured on a collagen type I matrix and incubated with the indicated cell permeant, purified synthetic N-acetyl, C-aldehyde C/EBPβ tetra-peptides (10 μM) or with recombinant C/EBPβ-HA peptides as indicated, together with the Chariot reagent (Active Motif) for 4 h. Control cells were incubated without peptides (P<0.05 for all peptides containing Ala^217).
as §1
(§3) Purified recombinant C/EBPβ peptides, expressed as known in the art (See, Descombes et al., supra; and Buck et al. (1994), supra), and purified synthetic N-acetyl, C-aldehyde tetrapeptides (200 μM) (American Peptide Company) were assayed for their ability to inhibit the activity of purified human recombinant caspases 1 (catalogue # 201-056) and 8 (catalogue # 201-041-C005) (Alexis Biochemicals). […] Caspase activity was determined by the release of the p-nitroaniline colorimetric (Alexis Biochemicals) substrate for caspase 1 (catalogue # 260-026) or 8 (catalogue # 260-045) within the linear part of the kinetic assay (Thornberry et al. (1997), supra; Stennicke and Salvesen, supra). […]

The target of assay [3] is T2, caspase 1 (Homo sapiens, UniProt P29466).
T2 construct: purchased Alexis Biochemicals 201-056
T2 sequence (P29466 120-404): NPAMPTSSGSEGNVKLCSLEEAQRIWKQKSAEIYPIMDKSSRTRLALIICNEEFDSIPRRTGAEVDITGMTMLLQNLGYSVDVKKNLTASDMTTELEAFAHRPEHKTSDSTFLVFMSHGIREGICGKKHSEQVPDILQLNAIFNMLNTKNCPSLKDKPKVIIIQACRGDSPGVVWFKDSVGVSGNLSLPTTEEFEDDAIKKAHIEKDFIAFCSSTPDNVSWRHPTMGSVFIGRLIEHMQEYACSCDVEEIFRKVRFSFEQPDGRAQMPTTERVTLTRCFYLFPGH
Description: In vitro self-activation of recombinant caspase 1. It is filed as biochemical. Conditions: peptides 200 μM, 2 h, procaspase 1 (1U). As for the experimental part: as §2
as §3, with “Biochemicals). The sequence of caspase 8 includes Ser217 through Asp479 cloned into an expression vector containing a 21 amino acid linker at the N-terminus. Thus, the prodomain (first 220 amino acids) is essentially missing.” for “Biochemicals).”
To delineate the role of C/EBPβ on the activation of procaspases 1 and 8, the self-activation of recombinant procaspases 1 and 8 was induced in vitro (Wilson et al., supra; Margolin et al., supra; and Earnshaw et al., supra), and the effect of purified recombinant C/EBPβ peptides, produced as described previously (Descombes et al., supra; and Buck et al., (1994), supra) on this process was determined. […]

Assay [4] has as its system hepatic stellate cells. Description: Apoptosis of stellate cells on collagen type I incubated with cell permeant peptides. Conditions: collagen type I matrix, tetrapeptides 10 μM, Chariot reagent, 4 h. The class given is cell-based, mouse. On the procedure:
as §2, with “Ala^217). […]” for “Ala^217).”
Fluorescent labels were observed using a triple-channel fluorescence microscope. […] The number of annexin V (+) cells was determined by in vivo microscopy as known in the art (See, Rudel and Bokoch, supra) among all cells or those expressing the GFP indicator protein either co-transfected with C/EBPβ proteins, or alone. […] At least 1000 cells were analyzed per experimental point, including at least 100 cells expressing the transfected DNA (Buck and Chojkier, EMBO J., 15:1753-1765 (1996); Buck et al., (1994), supra; and Buck et al., (1999), supra). […] Nuclear morphology was analyzed by staining cells with Hoechst 33342 (Molecular Probes). […]

Assay [5] relates to stellate cells from C/EBPβ−/− mice. Description: Rescue from apoptosis of stellate cells from C/EBPβ−/− mice by cell permeant tetrapeptides. The class given is cell-based, mouse. Conditions: C/EBPβ−/− cells activated by collagen type I, tetrapeptides 10 μM, Chariot reagent, 4 hours.
For assay [6], the target named is procaspase 8 (Homo sapiens, UniProt Q14790). Conditions: cited from earlier work.
Sequence of procaspase 8 (Q14790 whole entry): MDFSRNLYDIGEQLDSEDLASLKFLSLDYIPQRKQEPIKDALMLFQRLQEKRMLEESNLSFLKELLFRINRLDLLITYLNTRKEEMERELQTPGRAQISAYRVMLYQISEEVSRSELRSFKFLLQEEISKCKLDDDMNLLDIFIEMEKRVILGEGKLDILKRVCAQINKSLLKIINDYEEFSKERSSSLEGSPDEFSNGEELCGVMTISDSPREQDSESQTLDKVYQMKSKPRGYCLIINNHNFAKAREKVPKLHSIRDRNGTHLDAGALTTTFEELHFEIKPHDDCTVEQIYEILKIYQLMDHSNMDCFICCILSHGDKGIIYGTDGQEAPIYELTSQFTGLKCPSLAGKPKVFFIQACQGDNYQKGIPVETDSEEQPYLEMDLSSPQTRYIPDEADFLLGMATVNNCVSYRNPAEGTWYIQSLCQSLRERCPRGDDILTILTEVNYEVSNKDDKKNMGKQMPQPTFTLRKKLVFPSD
Assay [7] has as its system C/EBPβ-Ala^217 stellate cells. Description: Apoptosis of stellate cells from C/EBPβ-Ala^217 transgenic mice, Hoechst 33342 nuclear staining. The class given is cell-based, mouse. Conditions: collagen type I; IETD or transfection 1 μg. On the procedure: FIG. 2 provides results showing increased apoptosis in hepatic stellate cells from C/EBPβ^−/− and C/EBPβ-Ala^217 transgenic mice. […] Six hours after cultivation, an annexin-V-PE binding assay was performed (P<0.05 for C/EBPβ^−/− and C/EBPβ-Ala^217). […] Apoptotic cells are indicated with arrowheads.
Fluorescent labels were observed using a triple-channel fluorescence microscope. The fluorochromes utilized were FITC and Texas red (Molecular Probes). The number of annexin V (+) cells was determined by in vivo microscopy as known in the art (See, Rudel and Bokoch, supra) among all cells or those expressing the GFP indicator protein either co-transfected with C/EBPβ proteins, or alone. These values are reported herein as a percentage of annexin V (+) for cells expressing the transfected DNA. At least 1000 cells were analyzed per experimental point, including at least 100 cells expressing the transfected DNA (Buck and Chojkier, EMBO J., 15:1753-1765 (1996); Buck et al., (1994), supra; and Buck et al., (1999), supra). […] Nuclear morphology was analyzed by staining cells with Hoechst 33342 (Molecular Probes). […]

In the case of `CC(=O)N[C@@H](CSC(=O)[C@]1([C@@H](O)C(C)C)NC(=O)[C@H](C)[C@@H]1O)C(=O)O` [Lactacystin, lactacystin], the Stellate cell apoptosis result in assay [1] is “significant and rapid increase”.

On to “Ac-K-Phospho-T^217VD-CHO (Ac-K[pT]VD-aldehyde; SMILES CC(=O)N[C@@H](CCCCN)C(=O)N[C@H](C(=O)N[C@H](C(=O)N[C@H](C=O)CC(=O)O)C(C)C)[C@@H](C)OP(=O)(O)O) [synthetic N-acetyl, C-aldehyde C/EBPβ 216-219-PThr^217 tetrapeptide]”, for which the “Inhibition of in vitro self-activation of caspase 8” value (shortened to “Inhibition … of caspase 8”) in assay [2] was “inhibited the in vitro self-activation”. For the same molecule, in assay [3], the “Inhibition of in vitro self-activation of caspase 1” value is on record as “inhibited the in vitro self-activation”.

On to Ac-KA^217VD-CHO, for which, in assay [4], the “Induction of apoptosis of stellate cells” value is “induced apoptosis”.

As for “Ac-KE^217VD-CHO (Ac-KEVD-aldehyde; SMILES CC(=O)N[C@@H](CCCCN)C(=O)N[C@@H](CCC(=O)O)C(=O)N[C@H](C(=O)N[C@H](C=O)CC(=O)O)C(C)C) [cell permeant synthetic N-acetyl, C-aldehyde tetrapeptide, phosphorylation mimic domain of C/EBPβ]”, the “Inhibition … of caspase 8” value in assay [2] is on record as “inhibited the in vitro self-activation”. In addition, the “Inhibition of in vitro self-activation of caspase 1” value in assay [3] is “inhibited the in vitro self-activation”. In assay [5], the “Rescue of stellate cells from apoptosis” value is listed as “rescued these cells from apoptosis”.

With “Ac-KKPD^105-CHO (Ac-KKPD-aldehyde; SMILES CC(=O)N[C@@H](CCCCN)C(=O)N[C@@H](CCCCN)C(=O)N1CCC[C@H]1C(=O)N[C@H](C=O)CC(=O)O) [cell permeant synthetic N-acetyl, C-aldehyde tetrapeptide, phosphorylation mimic domain of rC/EBPβ]”, the “Inhibition … of caspase 8” value in assay [2] is recorded as “inhibited the in vitro self-activation”. Besides, the “Rescue of stellate cells from apoptosis” value in assay [5] is reported as “rescued these cells from apoptosis”.

For DEVD-CHO, the negative-log Ki (pKi) in assay [6] is 7.92.

On to IETD [reference compound], for which, in assay [7], the “Block of apoptosis of C/EBPβ-Ala^217 stellate cells” value is recorded as “blocked”.
